ChEMBL document CHEMBL1141551, “Discovery of novel PRL-3 inhibitors based on the structure-based virtual screening” (Bioorg Med Chem Lett, 2008)

biological target: Protein tyrosine phosphatase type IVA 3 (Homo sapiens, UniProt O75365); test: Inhibition of human PRL3 expressed in Escherichia coli BL21 (DE3)
Sequence (O75365 whole entry): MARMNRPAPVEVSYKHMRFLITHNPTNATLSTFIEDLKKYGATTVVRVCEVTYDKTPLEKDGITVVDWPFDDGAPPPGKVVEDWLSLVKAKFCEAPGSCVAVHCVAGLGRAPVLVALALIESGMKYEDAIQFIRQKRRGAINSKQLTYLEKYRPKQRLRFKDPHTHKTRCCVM

SMILES	IC50
N#CC1=C(S)N(c2ccccc2)C(/C=C/c2ccc(-c3ccc(Cl)cc3)o2)NC1=O (stereo not given)	18.3 µM
O=C1NC(=S)S/C1=C/c1ccc(-c2ccccc2C(=O)O)o1	13.3 µM
C=CCn1c(SCC(=O)c2ccc(O)c(O)c2)nnc1-c1cccc(Cl)c1	43.8 µM
COc1ccc(-n2nnnc2SCC(=O)c2ccc(O)c(O)c2)cc1	44.7 µM
O=C1NC(=O)/C(=C\c2cccn2-c2ccc(C(=O)O)cc2)N1	28.1 µM
